Test results as given in the supplement of paper PMC10307832.

How the values were obtained:
Assay in all cases: relative viability (nuclei count vs DMSO), 5 days (fraction); higher = more cells survive
RAF265 + Crizotinib = compound: Cn1c(Nc2ccc(C(F)(F)F)cc2)nc2cc(Oc3ccnc(-c4ncc(C(F)(F)F)[nH]4)c3)ccc21 [RAF265] + C[C@@H](Oc1cc(-c2cnn(C3CCNCC3)c2)cnc1N)c1c(Cl)ccc(F)c1Cl [Crizotinib] (partner 1 µM)
Outline: (§1)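 Nuclei were stained with Hoechst during a one-step fixation (final 0.05% Triton X-100, 1% formaldehyde, 1 ug/ml Hoechst) carried out 5 days after dosing, then counted on 4× images. The cells, lung cancer lines in 1536-well plates, had been dosed by pin tool the day after seeding with one drug alone or a fixed anchor-drug dose plus five library-drug doses (not always all listed) in √10 steps. Relative viability is the nuclei count in treated wells divided by that in vehicle wells, and each value is the median of duplicate plates.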

RAF265 + Vorinostat = compound: Cn1c(Nc2ccc(C(F)(F)F)cc2)nc2cc(Oc3ccnc(-c4ncc(C(F)(F)F)[nH]4)c3)ccc21 [RAF265] + O=C(CCCCCCC(=O)Nc1ccccc1)NO [Vorinostat] (partner 1 µM)
Outline: as §1

Doramapimod + Tozasertib = compound: Cc1ccc(-n2nc(C(C)(C)C)cc2NC(=O)Nc2ccc(OCCN3CCOCC3)c3ccccc23)cc1 [Doramapimod] + Cc1cc(Nc2cc(N3CCN(C)CC3)nc(Sc3ccc(NC(=O)C4CC4)cc3)n2)n[nH]1 [Tozasertib] (partner 0.1 µM)
Outline: as §1

IPA-3 + OSI-027 = compound: C1=CC=C2C(=C1)C=CC(=C2SSC3=C(C=CC4=CC=CC=C43)O)O [IPA-3] + COc1cccc2cc(-c3nc([C@H]4CC[C@H](C(=O)O)CC4)n4ncnc(N)c34)[nH]c12 [OSI-027] (partner 0.5 µM)
Outline: as §1

Cell Line	relative viability (RAF265 + Crizotinib; first compound 0.01 µM)	relative viability (RAF265 + Crizotinib; first compound 0.03162 µM)	relative viability (RAF265 + Crizotinib; first compound 0.1 µM)	relative viability (RAF265 + Crizotinib; first compound 0.3162 µM)	relative viability (RAF265 + Crizotinib; first compound 1 µM)	relative viability (RAF265 + Vorinostat; first compound 0.01 µM)	relative viability (RAF265 + Vorinostat; first compound 0.03162 µM)	relative viability (RAF265 + Vorinostat; first compound 0.1 µM)	relative viability (RAF265 + Vorinostat; first compound 1 µM)	relative viability (Doramapimod + Tozasertib; first compound 0.02 µM)	relative viability (Doramapimod + Tozasertib; first compound 0.06325 µM)	relative viability (Doramapimod + Tozasertib; first compound 0.2 µM)	relative viability (Doramapimod + Tozasertib; first compound 0.6325 µM)	relative viability (Doramapimod + Tozasertib; first compound 2 µM)	relative viability (IPA-3 + OSI-027; first compound 0.2 µM)	relative viability (IPA-3 + OSI-027; first compound 0.6325 µM)	relative viability (IPA-3 + OSI-027; first compound 2 µM)	relative viability (IPA-3 + OSI-027; first compound 6.325 µM)	relative viability (IPA-3 + OSI-027; first compound 20 µM)	relative viability (RAF265 + Vorinostat; first compound 0.3162 µM)
EKVX	0.909	0.625	0.998	0.805	0.773	0.775	0.659	0.87	0.581	0.324	0.385	0.43	0.336	0.341	0.649	0.68	0.738	0.728	0.786	
ABC-1	1.17	0.864	1.37	0.851	0.464	1.34	0.853	1.3	0.644	0.235	0.228	0.183	0.189	0.123	0.55	0.426	0.457	0.564	0.567	0.982
NCI-H520	0.632	0.762	0.774	0.771	0.607	0.777	0.579	0.688	0.55	0.483	0.441	0.402	0.42	0.382	0.303	0.255	0.282	0.284	0.204	0.572
LCLC-97TM1	0.355	0.274	0.293	0.181	0.121	0.719	0.508	0.544	0.421	0.22	0.228	0.21	0.266	0.142	0.403	0.521	0.436	0.498	0.502	0.525
NCI-H2170	1.22	1.08	1.09	0.784	0.771	0.859	0.859	0.761	0.521	0.717	0.611	0.824	0.636	0.6	0.733	0.691	0.721	0.672	0.677	0.393
NCI-H3122	0.305	0.287	0.305	0.251	0.283	1.02	1.01	0.93	0.631	0.439	0.408	0.448	0.431	0.365	1.13	0.951	0.948	1.11	0.896	0.965
PC-14	0.872	0.818	0.995		0.68	0.743	0.642	0.632	0.619	0.582	0.602	0.588	0.647	0.525	1.54	0.778	0.749	0.766	1.17	
EPLC-272H	0.765	0.868	1.32	0.472	0.434	0.503	0.472	0.318	0.113	0.319	0.275	0.441	0.29	0.246	0.293	0.281	0.236	0.264	0.335	0.22
A-427	0.882	0.639	0.927	0.644	0.159	0.89	0.829	0.892	0.423	0.248	0.216	0.218		0.189	0.432	0.438	0.491	0.388	0.451	0.733
